# Source: patent publication US20180217163A1, “TREATMENT OF NEURODEGENERATIVE CONDITIONS USING PKC ACTIVATORS AFTER DETERMINING THE PRESENCE OF THE APOE4 ALLELE” (priority 2015, published 2018)
# Read-outs that look alike come from different tables or passages of the source.
# T1: PKCε (Mus musculus, UniProt P16054)
# T1 construct: from tissue; host or cells: mouse brain
# T1 sequence (P16054 1-737): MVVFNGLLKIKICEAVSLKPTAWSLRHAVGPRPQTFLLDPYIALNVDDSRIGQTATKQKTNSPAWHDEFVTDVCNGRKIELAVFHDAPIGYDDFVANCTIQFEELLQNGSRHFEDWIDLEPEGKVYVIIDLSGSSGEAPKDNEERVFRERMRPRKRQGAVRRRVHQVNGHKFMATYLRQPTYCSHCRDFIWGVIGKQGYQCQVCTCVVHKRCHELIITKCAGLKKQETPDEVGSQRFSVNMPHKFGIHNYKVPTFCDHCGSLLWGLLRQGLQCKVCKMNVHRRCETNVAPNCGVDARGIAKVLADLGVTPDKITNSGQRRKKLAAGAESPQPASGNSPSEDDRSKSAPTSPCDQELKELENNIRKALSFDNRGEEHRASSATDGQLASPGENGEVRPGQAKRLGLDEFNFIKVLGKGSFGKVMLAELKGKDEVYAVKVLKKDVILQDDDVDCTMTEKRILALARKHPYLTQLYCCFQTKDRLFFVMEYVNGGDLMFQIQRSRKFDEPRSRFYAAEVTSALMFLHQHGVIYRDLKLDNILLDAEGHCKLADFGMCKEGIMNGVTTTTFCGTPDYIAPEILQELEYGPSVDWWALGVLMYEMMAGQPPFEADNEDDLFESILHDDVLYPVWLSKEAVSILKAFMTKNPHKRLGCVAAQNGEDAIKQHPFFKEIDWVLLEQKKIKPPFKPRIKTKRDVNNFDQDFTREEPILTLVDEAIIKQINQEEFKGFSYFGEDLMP
# T2: PKCε (Homo sapiens, UniProt Q02156)
# T2 construct: from tissue; host or cells: blood of trial subjects
# T2 sequence (Q02156 1-737): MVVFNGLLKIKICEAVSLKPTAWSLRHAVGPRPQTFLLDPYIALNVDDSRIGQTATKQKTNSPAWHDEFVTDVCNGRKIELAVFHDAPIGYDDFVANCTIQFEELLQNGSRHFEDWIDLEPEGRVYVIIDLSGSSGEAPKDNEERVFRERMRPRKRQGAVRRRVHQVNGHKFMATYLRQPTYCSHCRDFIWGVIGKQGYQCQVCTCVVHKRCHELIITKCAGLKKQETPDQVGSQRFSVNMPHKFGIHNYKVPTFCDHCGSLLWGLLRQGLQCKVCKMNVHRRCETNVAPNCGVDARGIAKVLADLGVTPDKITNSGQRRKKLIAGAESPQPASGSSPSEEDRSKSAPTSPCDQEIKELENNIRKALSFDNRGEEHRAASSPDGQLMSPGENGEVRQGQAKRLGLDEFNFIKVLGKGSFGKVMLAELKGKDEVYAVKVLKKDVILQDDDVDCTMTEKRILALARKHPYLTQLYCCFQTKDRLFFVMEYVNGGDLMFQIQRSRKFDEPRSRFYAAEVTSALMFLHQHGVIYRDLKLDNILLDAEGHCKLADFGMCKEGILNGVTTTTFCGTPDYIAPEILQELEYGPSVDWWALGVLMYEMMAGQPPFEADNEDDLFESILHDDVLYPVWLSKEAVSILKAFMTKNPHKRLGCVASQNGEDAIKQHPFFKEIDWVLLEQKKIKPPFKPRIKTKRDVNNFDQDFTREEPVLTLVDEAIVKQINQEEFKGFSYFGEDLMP
# Assays:
# HDAC4 = HDAC4 nuclear translocation in SH-SY5Y cells (immunoblot); type: cell-based, human
# Experimental: (§1) Human SH-SY5Y neuroblastoma cells (Sigma-Aldrich), were cultured in 45% F12K, 45% MEM, and 10% FBS. Cells were treated with cholesterol, ASPD, ApoE3/ApoE4+cholesterol, or PKC activators for 24 h. Cholesterol was dissolved in ethanol. ApoE (20 nM) and cholesterol (100 μM) were mixed separately into the cultures. To block the ApoE receptors, cells were treated with RAP for 30 min before adding ApoE. Human primary neurons (ScienCell Research Laboratories) were plated on poly-L-lysine-coated plates and were maintained in neuronal medium (ScienCell Research Laboratories) supplemented with the neuronal growth supplements (ScienCell Research Laboratories). Half of the culture medium was changed every 3 d and fresh activators were added with every medium change to maintain viable neurons.
# A PBS solution of 5×10^6 Human SH-SY5Y neuroblastoma cells was centrifuged and the resultant cell pellet was resuspended and washed twice with cold PBS. After the second wash, the cell pellet was resuspended in 500 μl of hypotonic buffer (20 mM Tris-Cl, pH 7.4, 10 mM NaCl, 3 mM MgCl2, and 1 mM PMSF) and incubated on ice for 15 min. Next, 25 μl of 10% NP-40 was added to the cell suspension and the sample was vortexed for 10 s. The homogenate was centrifuged for 10 min at 1000×g at 4° C. to obtain the cytoplasmic fraction (supernatant) and nuclear fraction (pellet). […] Protein concentration was measured using the Coomassie Plus (Bradford) Protein Assay kit (Pierce).
# Protein in samples of the supernetant and nuclear fractions was separated by SDSPAGE in a 4-20% gradient Tris-Glycine gel (Invitrogen). […] The immunoblot proteins were detected using ImageQuant RT-ECL (GE Life Sciences) and densitometric quantification was performed using IMAL software, which was developed at our institution. […]
# HDAC6 = HDAC6 nuclear translocation in SH-SY5Y cells (immunoblot); type: cell-based, human
# Experimental: as §1
# A PBS solution of 5×10^6 Human SH-SY5Y neuroblastoma cells was centrifuged and the resultant cell pellet was resuspended and washed twice with cold PBS. After the second wash, the cell pellet was resuspended in 500 μl of hypotonic buffer (20 mM Tris-Cl, pH 7.4, 10 mM NaCl, 3 mM MgCl2, and 1 mM PMSF) and incubated on ice for 15 min. Next, 25 μl of 10% NP-40 was added to the cell suspension and the sample was vortexed for 10 s. The homogenate was centrifuged for 10 min at 1000×g at 4° C. to obtain the cytoplasmic fraction (supernatant) and nuclear fraction (pellet). After removing the supernetant, the nuclear pellet was resuspended in 50 μl of complete cell extraction buffer (100 mM Tris-Cl, pH 7.4, 2 mM Na3VO4, 100 mM NaCl, 1% Triton X-100, 1 mM EDTA, 10% glycerol, 1 mM EGTA, 0.1% SDS, 1 mM NaF, 0.5% deoxycholate, 20 mM Na4P2O7, and 1 mM PMSF) and incubated on ice for 30 min with vortexing at 10 min intervals. The nuclear lysate was centrifuged at 14,000×g for 30 min at 4° C. to obtain the nuclear fraction (supernatant). Protein concentration was measured using the Coomassie Plus (Bradford) Protein Assay kit (Pierce).
# Protein in samples of the supernetant and nuclear fractions was separated by SDSPAGE in a 4-20% gradient Tris-Glycine gel (Invitrogen). The protein was then transferred to nitrocellulose membrane. The membrane was blocked with BSA at room temperature for 15 min and incubated with primary antibody overnight at 4° C. After incubation, the membrane was washed thrice (3×) with TBS-T (Tris-buffered saline-Tween 20) and further incubated with alkaline-phosphatase-conjugated secondary antibody (Jackson Immunoresearch Laboratories) at 1:10,000 dilution for 45 min. Following incubation, the membrane was washed 3× with TBS-T and developed using the 1-step NBT-BCIP substrate (Pierce). […] The immunoblot proteins were detected using ImageQuant RT-ECL (GE Life Sciences) and densitometric quantification was performed using IMAL software, which was developed at our institution. […]
# [1] = in vivo; cited from earlier work
# NCI 60 cell line screen = details: cited from earlier work
# PKC [2] = details: cited from earlier work
# protein kinase C = details: (-)-enantiomer; cited from earlier work
# PKC [3] = details: [3H] phorbol dibutyrate competition; cited from earlier work
# PKCε mRNA = PKCε mRNA expression in SH-SY5Y cells (qRT-PCR); type: cell-based, human; details: ASPD-treated cells
# Experimental: as §1
# qRT-PCR was performed and the results analyzed as described previously (Schmittgen et al., Analyzing real-time PCR data by the comparative C(T) method, Nat. Protoc., 3:1101-1108, 2008; Sen et al., 2012 supra). Total RNA (500 ng) was reverse transcribed using oligo(dT) and Superscript III (Invitrogen) at 50° C. for 1 h. The cDNA products were analyzed using a LightCycler 480 II (Roche) PCR machine and LightCycler 480 SYBR Green 1 master mix following the manufacturer's protocol. […]
# BDNF mRNA = BDNF mRNA expression in SH-SY5Y cells (qRT-PCR); type: cell-based, human; details: ASPD-treated cells
# Experimental: as §1
# qRT-PCR was performed and the results analyzed as described previously (Schmittgen et al., Analyzing real-time PCR data by the comparative C(T) method, Nat. Protoc., 3:1101-1108, 2008; Sen et al., 2012 supra). Total RNA (500 ng) was reverse transcribed using oligo(dT) and Superscript III (Invitrogen) at 50° C. for 1 h. The cDNA products were analyzed using a LightCycler 480 II (Roche) PCR machine and LightCycler 480 SYBR Green 1 master mix following the manufacturer's protocol. Primers for PKCε (forward primer: […], reverse primer: […], PKCα (forward-[…], reverse: […]), PKC (forward: […], reverse: CCGATG […]), GAPDH (forward: […], reverse: […]), and BDNF (forward: […], reverse: […]; Origene).
# [4] = test system: squamous cell carcinoma and melanoma; details: used topically; cited from earlier work
# PKC [5] = details: cited from earlier work; remark: listed apart in the source
# PKCε [6] = target: T1, PKCε; assay: PKCε activation in brain of mice (FIG. 11); type: in vivo; details: single intravenous injection
# PKCε [7] = target: T2, PKCε; assay: Phase IIa clinical trial: PKCε levels after bryostatin; type: in vivo
# [8] = cited from earlier work
# [9] = ApoE4+ASPD induced translocation, 24 h
# [10] = A-ring bryologs, read-out: affinity for PKC
# [11] = RAP 100 nM, 30 min before ApoE+Chol 24 h
molecule,measurement,setting,value
CCC/C=C/C=C/C(=O)O[C@H]1/C(=C/C(=O)OC)C[C@H]2C[C@H]([C@@H](C)O)OC(=O)C[C@H](O)C[C@@H]3C[C@H](OC(C)=O)C(C)(C)C(O)(C[C@@H]4C/C(=C/C(=O)OC)C[C@H](/C=C/C(C)(C)[C@]1(O)O2)O4)O3 [Bryostatin-1],reduction of nuclear import of HDAC4,HDAC4; [9],40±8.4%
same,reduction in nuclear HDAC6,HDAC6; [9],46±9.2%
same,dose exhibiting no toxicity,[1],20 μg/week
same,dose that may be associated with muscle pain,[1],more than 35 μg/week
CC1=CC[C@H](C)C(C)(C)[C@@H]1/C=C/C(C)=C/CC[C@@]1(CO)[C@H](CCCO)/C(=C(/C)C=O)CC[C@]1(C)O [Iripallidal],GI50 (concentration required to inhibit growth by 50%),NCI 60 cell line screen,from micromolar to nanomolar range
CCCCCCCC(=O)OC1C(=CC(=O)OC)CC2CC(CO)OC(=O)CC(O)CCOC(CCCc3ccc(Br)cc3)CC3CCOC(C=CC(C)(C)C1(O)O2)O3 (centres unmarked) [bryolog 5],Ki,PKC [2]; [10],1.9 nM
CCCCCCCCc1ccc2c3c(c[nH]c13)C[C@@H](CO)NC(=O)[C@H](C(C)C)N2C [Octylindolactam V],EC50,protein kinase C,29 nM
"CC1=C[C@]23C(=O)[C@@H](C=C(COC(=O)c4ccccc4)[C@@H](O)[C@]2(O)[C@H]1OC(=O)c1ccccc1)[C@H]1[C@@H](C[C@H]3C)C1(C)C [Ingenol 3,20-dibenzoate]",Ki,PKC [3],240 nM
"ASPD+Chol: amyloid-β amylospheroids prepared from Aβ1-42, plus cholesterol","HDAC6 in the nucleus, percentage of total protein","HDAC6; 24 h, immunoblot",21.7±2.8%
same,PKCε mRNA levels,PKCε mRNA,0.58±0.06 fold
same,BDNF mRNA levels,BDNF mRNA,0.62±0.05 fold
C/C=C(/C)C(=O)O[C@H]1C(C)=C[C@]23C(=O)[C@@H](C=C(CO)[C@@H](O)[C@]12O)[C@H]1[C@@H](C[C@H]3C)C1(C)C [Ingenol-3-angelate],antitumor activity,[4],exhibits antitumor activity
"CCC1CC1CC1CC1CC1CC1CC1CC1CC1CC1CC1CC1CCC(=O)OC (centres unmarked) [DHA-CP6, cyclopropanated docosahexaenoic acid methyl ester]",effective concentration,PKC [5],10 nM
CCC/C=C/C=C/C(=O)O[C@H]1/C(=C/C(=O)OC)C[C@H]2C[C@H]([C@@H](C)O)OC(=O)C[C@H](O)C[C@@H]3C[C@H](OC(C)=O)C(C)(C)[C@](O)(C[C@@H]4C/C(=C/C(=O)OC)C[C@H](/C=C/C(C)(C)[C@]1(O)O2)O4)O3 [Bryostatin-1],PKCε expression and levels in the brain,PKCε [6],activate PKCε expression and increase PKCε levels in the brain of mice
same,synthesis of PKCε,PKCε [7],increases the synthesis of PKCε
same,time of highest PKCε levels post administration,PKCε [7],1 h
same,t1/2 in the blood stream,[8]; blood,1 h
same,crossing of the blood-brain barrier,[8]; in vivo,crosses the blood-brain barrier
same,part of initial dose in the blood at 100 hrs,"[8]; intravenous injection, 100 hrs",1%
same,time detectable in the blood after a single injection,[8]; single injection,14 days
CCCCCCCC(=O)OC1C(=CC(=O)OC)CC2CC(CO)OC(=O)CC(O)CCOC(C(C)(C)C)CC3CCOC(C=CC(C)(C)C1(O)O2)O3 (centres unmarked) [bryolog 3],Ki,PKC [2]; [10],6.5 nM
CCCCCCCC(=O)OC1C(=CC(=O)OC)CC2CC(CO)OC(=O)CC(O)CCOC(c3ccccc3)CC3CCOC(C=CC(C)(C)C1(O)O2)O3 (centres unmarked) [bryolog 4],Ki,PKC [2]; [10],2.3 nM
CCCCCCCC(=O)O[C@H]1/C(=C/C(=O)OC)C[C@H]2C[C@H](CO)OC(=O)C[C@H](O)C[C@@H]3CCC[C@H](C[C@@H]4CCO[C@H](/C=C/C(C)(C)[C@]1(O)O2)O4)O3 [Analog 1],affinity for PKC,PKC [2],highest affinity for PKC
same,Ki,PKC [2]; read-out: PKC Affin,0.25 nM
"RAP: recombinant human receptor-associated protein, ApoE receptor binding protein, from Molecular Innovations (protein, UniProt P30533 35-357, looked up) Alpha-2-macroglobulin …: YSREKNQPKPSPKRESGEEFRMEKLNQLWEKAQRLHLPPVRLAELHADLKIQERDELAWKKLKLDGLDEDGEKEARLIRNLNVILAKYGLDGKKDARQVTSNSLSGTQEDGLDDPRLEKLWHKAKTSGKFSGEELDKLWREFLHHKEKVHEYNVLLETLSRTEEIHENVISPSDLSDIKGSVLHSRHTELKEKLRSINQGLDRLRRVSHQGYSTEAEFEEPRVIDLWDLAQSANLTDKELEAFREELKHFEAKIEKHNHYQKQLEIAHEKLRHAESVGDGERVSRSREKHALLEGRTKELGYTVKKHLQDLSGRISRARHNEL",effect of RAP pretreatment on ApoE-mediated nuclear translocation of HDAC4,HDAC4; [11],abolished the effects of ApoE3+Chol and ApoE4+Chol
same,effect of RAP pretreatment on ApoE-mediated nuclear translocation of HDAC6,HDAC6; [11],abolished the effects of ApoE3+Chol and ApoE4+Chol
